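Tested at 5 concentrations; 48 h exposure; 96-well plates; endpoints linearly interpolated, else capped at highest concentration. The concentration for 50% growth inhibition is given as GI50.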 Calls of active or inactive are those of the source. Rule as the data show it: active = GI50 up to about 1.1 µM and inactive = higher.
How the values were obtained:
Test in all cases: inhibition of tumour cell growth, NCI panel, 48 h
OVCAR-8 = test system: OVCAR-8
CCRF-CEM = test system: CCRF-CEM
SF-295 = test system: SF-295
MDA-MB-435 = test system: MDA-MB-435
BT-549 = test system: BT-549
SNB-75 = test system: SNB-75
NCI/ADR-RES = test system: NCI/ADR-RES
OVCAR-4 = test system: OVCAR-4
786-0 = test system: 786-0
U-251 = test system: U-251
HOP-92 = test system: HOP-92
KM12 = test system: KM12
NCI-H23 = test system: NCI-H23
TK-10 = test system: TK-10
UACC-62 = test system: UACC-62
HCT-116 = test system: HCT-116
K562 = test system: K562
NCI-H226 = test system: NCI-H226
A549 = test system: A549

SMILES | GI50 (OVCAR-8) | GI50 (CCRF-CEM) | GI50 (SF-295) | GI50 (MDA-MB-435) | GI50 (BT-549) | GI50 (SNB-75) | GI50 (NCI/ADR-RES) | GI50 (OVCAR-4) | GI50 (786-0) | GI50 (U-251) | GI50 (HOP-92) | GI50 (KM12) | GI50 (NCI-H23) | GI50 (TK-10) | GI50 (UACC-62) | GI50 (HCT-116) | GI50 (K562) | GI50 (NCI-H226) | GI50 (A549)
CC[C@@]1(O)C(=O)OCc2c1cc1n(c2=O)Cc2cc3c(NC(=O)CN)cccc3nc2-1 | 0.392 µM (active) | < 0.01 µM (active) | 0.115 µM (active) | 1.49 µM (inactive) | 0.171 µM (active) | 0.0733 µM (active) | 0.188 µM (active) | 4.51 µM (inactive) | 0.0612 µM (active) | 0.0906 µM (active) | 3.48 µM (inactive) | 2.96 µM (inactive) | 0.114 µM (active) | 10.4 µM (inactive) | 0.0506 µM (active) | 0.441 µM (active) | 1.37 µM (inactive) | 0.217 µM (active) | 0.766 µM (active)
Cc1noc(NC(=O)Nc2ccccc2F)c1C#N | > 90.8 µM (inactive) | 70.6 µM (inactive) | 41.5 µM (inactive) | > 100 µM (inactive) | > 100 µM (inactive) | 97.1 µM (inactive) | > 100 µM (inactive) | 69.8 µM (inactive) | 7.69 µM (inactive) | 21.5 µM (inactive) | > 100 µM (inactive) | > 100 µM (inactive) | > 81.3 µM (inactive) | > 27.2 µM (inactive) | > 27.4 µM (inactive) | 14.4 µM (inactive) | > 45.8 µM (inactive) | > 100 µM (inactive) | 26.1 µM (inactive)
Cc1cc(-c2nc3ccc(F)cc3s2)ccc1NC(=O)C(N)CCCCN (stereo unspecified) | 5.97 µM (inactive) | 2.71 µM (inactive) | 6.93 µM (inactive) | 2.17 µM (inactive) | 14.4 µM (inactive) | 4.83 µM (inactive) | 15.1 µM (inactive) | 8.28 µM (inactive) | 3.21 µM (inactive) | 2.11 µM (inactive) | 8.2 µM (inactive) | 2.02 µM (inactive) | 4.73 µM (inactive) | 0.0731 µM (active) | 10.8 µM (inactive) | 3.71 µM (inactive) | 3.45 µM (inactive) | 2.44 µM (inactive) | 2.64 µM (inactive)
CC1(C)CCCCCCCCCC(C)(CCCCCCCCCCCCO)C1=O (stereo unspecified) | 14.5 µM (inactive) | 17.4 µM (inactive) | 16.2 µM (inactive) | 17.7 µM (inactive) | 16.6 µM (inactive) | 16.1 µM (inactive) | 18.5 µM (inactive) | 17.1 µM (inactive) | 18.6 µM (inactive) | 17.8 µM (inactive) | 16.9 µM (inactive) | 17.1 µM (inactive) | 18.7 µM (inactive) | 17.7 µM (inactive) | 18.3 µM (inactive) | 17.7 µM (inactive) | 20 µM (inactive) | 9.84 µM (inactive) | 16.1 µM (inactive)
CC(C)(C)C1CCC2c3c([nH]c4ccccc34)C3C(=O)N(c4cccc([N+](=O)[O-])c4)C(=O)C3C2C1 (stereo unspecified) | 25.7 µM (inactive) | > 100 µM (inactive) | 53.7 µM (inactive) | 16.1 µM (inactive) | 17 µM (inactive) | 59.6 µM (inactive) | 27.1 µM (inactive) | 25.5 µM (inactive) | 17.4 µM (inactive) | > 100 µM (inactive) | 61.5 µM (inactive) | 5.62 µM (inactive) | 15.5 µM (inactive) | 38.5 µM (inactive) | 23.4 µM (inactive) | 11.6 µM (inactive) | > 100 µM (inactive) | 25.4 µM (inactive) | 39.5 µM (inactive)
CC(C)(CCCCC(C)(C)NCC1COc2ccccc2O1)NCC1COc2ccccc2O1 (stereo unspecified) | > 10 µM (inactive) | > 10 µM (inactive) | 9.95 µM (inactive) | 1.81 µM (inactive) | > 10 µM (inactive) | 9.38 µM (inactive) | > 10 µM (inactive) | > 10 µM (inactive) | 3.25 µM (inactive) | 4.47 µM (inactive) | 2.19 µM (inactive) | > 10 µM (inactive) | > 10 µM (inactive) | > 10 µM (inactive) | 3.43 µM (inactive) | 7.91 µM (inactive) | > 10 µM (inactive) | > 10 µM (inactive) | > 10 µM (inactive)
COCn1cnc2c(=O)n(-c3ccc(C)cc3)c(=S)n(-c3ccc(C)cc3)c21 | > 100 µM (inactive) | > 100 µM (inactive) | > 100 µM (inactive) | > 100 µM (inactive) | > 100 µM (inactive) | 6.98 µM (inactive) | > 100 µM (inactive) | > 100 µM (inactive) | > 100 µM (inactive) | > 100 µM (inactive) | 71.8 µM (inactive) | > 100 µM (inactive) | > 100 µM (inactive) | > 100 µM (inactive) | > 100 µM (inactive) | > 100 µM (inactive) | > 100 µM (inactive) | > 100 µM (inactive) | > 100 µM (inactive)
CC1(C)CNC(c2ccc3c(c2)Cc2cc(C4=NC(C)(C)CN4)ccc2-3)=N1 | 37 µM (inactive) | 48.2 µM (inactive) | > 100 µM (inactive) | 32.8 µM (inactive) | > 100 µM (inactive) | 90.6 µM (inactive) | > 100 µM (inactive) | 32.9 µM (inactive) | 49.8 µM (inactive) | 22 µM (inactive) | 90.8 µM (inactive) | 28.1 µM (inactive) | 35.1 µM (inactive) | > 100 µM (inactive) | 25.3 µM (inactive) | 32.8 µM (inactive) | 24.4 µM (inactive) | 49.4 µM (inactive) | > 100 µM (inactive)
Cc1ccc2c(O)c3c(cc2c1)C(=O)c1c2c(cc(O)c1C3=O)C1(C)OC(O2)C(O)C(N(C)C)C1O (stereo unspecified) | 1.19 µM (inactive) | 0.154 µM (active) | 1.09 µM (active) | 1.39 µM (inactive) | 1.49 µM (inactive) | 1.04 µM (active) | 1.4 µM (inactive) | 1.56 µM (inactive) | 0.617 µM (active) | 1.16 µM (inactive) | 1.01 µM (active) | 0.59 µM (active) | 1.26 µM (inactive) | 1.69 µM (inactive) | 1.07 µM (active) | 0.296 µM (active) | 0.167 µM (active) | 1.15 µM (inactive) | 0.719 µM (active)
CC1(C)COP(=S)(c2ccccn2)O[C@@H]1c1ccccc1 (stereo partly specified) | > 100 µM (inactive) | 42.1 µM (inactive) | 55.2 µM (inactive) | > 100 µM (inactive) | > 100 µM (inactive) | 6.19 µM (inactive) | 66.1 µM (inactive) | 70 µM (inactive) | > 100 µM (inactive) | > 100 µM (inactive) | > 100 µM (inactive) | > 100 µM (inactive) | 69.5 µM (inactive) | > 100 µM (inactive) | > 100 µM (inactive) | 42.8 µM (inactive) | 41.6 µM (inactive) | 37.9 µM (inactive) | 81.3 µM (inactive)
Cc1ccnc(NC(NC(=O)c2ccccc2)(C(F)(F)F)C(F)(F)F)c1 | > 100 µM (inactive) | 75.9 µM (inactive) | > 100 µM (inactive) | > 100 µM (inactive) | > 100 µM (inactive) | > 100 µM (inactive) | > 100 µM (inactive) | > 100 µM (inactive) | > 100 µM (inactive) | > 100 µM (inactive) | > 100 µM (inactive) | > 100 µM (inactive) | > 100 µM (inactive) | > 100 µM (inactive) | > 100 µM (inactive) | > 100 µM (inactive) | > 100 µM (inactive) | > 100 µM (inactive) | > 100 µM (inactive)
O=[N+]([O-])c1cc(/N=N/c2c(O)ccc3cc(S(=O)(=O)O)ccc23)c(O)c([N+](=O)[O-])c1 | 35.7 µM (inactive) | 18.9 µM (inactive) | 44.9 µM (inactive) | > 100 µM (inactive) | > 100 µM (inactive) | > 100 µM (inactive) | > 100 µM (inactive) | > 100 µM (inactive) | > 100 µM (inactive) | > 100 µM (inactive) | > 100 µM (inactive) | 31.9 µM (inactive) | > 100 µM (inactive) | > 100 µM (inactive) | > 100 µM (inactive) | > 100 µM (inactive) | > 100 µM (inactive) | 47.9 µM (inactive) | > 100 µM (inactive)
O=C(CCCn1ccnc1[N+](=O)[O-])NCCn1cncc1[N+](=O)[O-] | > 100 µM (inactive) | > 100 µM (inactive) | > 100 µM (inactive) | > 100 µM (inactive) | > 100 µM (inactive) | > 100 µM (inactive) | > 100 µM (inactive) | > 100 µM (inactive) | > 100 µM (inactive) | > 100 µM (inactive) | > 100 µM (inactive) | > 100 µM (inactive) | > 100 µM (inactive) | > 100 µM (inactive) | > 100 µM (inactive) | > 100 µM (inactive) | > 100 µM (inactive) | > 100 µM (inactive) | > 100 µM (inactive)
CCCCC/C=C1/CC(CO)(COC(=O)CC(C(C)C)C(C)C)OC1=O (stereo unspecified) | 17.2 µM (inactive) | 16 µM (inactive) | 5.73 µM (inactive) | 6.27 µM (inactive) | 14.8 µM (inactive) | 10.3 µM (inactive) | 17.9 µM (inactive) | 26.5 µM (inactive) | 8.53 µM (inactive) | 14.1 µM (inactive) | 7.35 µM (inactive) | 16.9 µM (inactive) | 16 µM (inactive) | 11.8 µM (inactive) | 13.7 µM (inactive) | 14.8 µM (inactive) | 5.75 µM (inactive) | 12.1 µM (inactive) | 11.1 µM (inactive)

From ChEMBL document CHEMBL1201862, “PubChem BioAssay data set” (2004)
